For the assay, the target named is MAPK14 (human) (UniProt Q16539). Kind of assay: Inhibition of MAPK14 Kinase Activity.

pIC50: −log10 of the molar value.

Chain of MAPK14 (human) (Q16539 whole entry, looked up): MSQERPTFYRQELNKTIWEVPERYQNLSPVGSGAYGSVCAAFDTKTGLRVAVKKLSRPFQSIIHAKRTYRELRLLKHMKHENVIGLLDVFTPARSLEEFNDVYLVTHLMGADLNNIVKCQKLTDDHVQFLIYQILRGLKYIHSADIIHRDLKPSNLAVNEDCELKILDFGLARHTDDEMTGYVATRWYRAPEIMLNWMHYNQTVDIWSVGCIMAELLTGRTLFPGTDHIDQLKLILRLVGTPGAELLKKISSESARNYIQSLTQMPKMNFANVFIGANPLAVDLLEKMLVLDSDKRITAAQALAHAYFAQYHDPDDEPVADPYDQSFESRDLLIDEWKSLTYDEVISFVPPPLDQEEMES

Consider `O=C(Nc1ccc(Cc2c[nH]c3ncccc23)cc1)Nc1cccc(C(F)(F)F)c1`, for which the pIC50 (as a rule, −log10 of the IC50, conventionally taken in molar units) is ≥ 5.00.

With `Oc1ccc(F)c(Cc2c[nH]c3ncc(Br)cc23)c1F`, the pIC50 was ≥ 5.00.

For the compound `CS(=O)(=O)Nc1ccc(F)c(C(=O)c2c[nH]c3ncc(Br)cc23)c1`, the pIC50 is ≥ 5.00.

Regarding `c1cnc2ccc(Nc3ccnc4[nH]ccc34)cc2c1`, the pIC50 is ≥ 5.00.

Regarding `CCS(=O)(=O)Nc1ccc(F)c(C(=O)c2c[nH]c3ncc(-c4cccnc4)cc23)c1F`, the pIC50 was ≥ 5.00.

Take `COC(=O)Nc1ccc(F)c(Cc2c[nH]c3ncc(-c4cccnc4)cc23)c1F`: the pIC50 was ≥ 5.00.

On to `O=C(c1ccccc1F)c1c[nH]c2ncccc12`, for which the pIC50 was ≥ 5.00.

On to `O=S(=O)(NCc1c[nH]c2ncccc12)c1cc(Cl)c(Cl)s1`, for which the pIC50 was ≥ 5.00.

Consider `O=C(O)C=Cc1cccc(-c2cnc3[nH]cc(C(=O)c4cc(O)ccc4F)c3c2)c1`, for which the pIC50 is ≥ 5.00.

Consider `COc1cccc(C(=O)c2c[nH]c3ncc(-c4cccnc4)cc23)c1`, for which the pIC50 was ≥ 5.00.

As to `Cc1ccccc1C(=O)c1c[nH]c2ncc(-c3cccc(N)c3)cc12`, the pIC50 was ≥ 5.00.

Turning to `NC(=O)c1ccc(-c2cnc3[nH]cc(C(=O)c4cccc(O)c4)c3c2)cc1`, the pIC50 was ≥ 5.00.

For the compound `O=C(c1cc(F)ccc1F)c1c[nH]c2ncc(-c3ccsc3)cc12`, the pIC50 was ≥ 5.00.

Take `CCCS(=O)(=O)Nc1ccc(F)c(C(=O)c2c[nH]c3ncc(Cl)cc23)c1F`: the pIC50 is ≥ 5.00.

Take `O=C(c1ccccc1F)c1c[nH]c2ncc(-c3ccccn3)cc12`: the pIC50 was ≥ 5.00.

Consider `CCCS(=O)(=O)Nc1ccc(F)c(C(=O)c2c[nH]c3ncc(Br)cc23)c1F`, for which the pIC50 was ≥ 5.00.

In the case of `CS(=O)(=O)Nc1ccc(F)c(C(=O)c2c[nH]c3ncc(-c4cccc(S(C)(=O)=O)c4)cc23)c1F`, the pIC50 is ≥ 5.00.

`O=C(c1cc(O)ccc1F)c1c[nH]c2ncccc12`: the pIC50 was ≥ 5.00.

Take `Oc1cc(O)cc(Cc2c[nH]c3ncc(-c4ccsc4)cc23)c1`: the pIC50 was ≥ 5.00.

Regarding `Cc1ccc(F)cc1C(=O)c1c[nH]c2ncc(-c3cccc(NS(C)(=O)=O)c3)cc12`, the negative logarithm of the IC50 (pIC50) is ≥ 5.00.

Turning to `O=C(c1cccc(O)c1F)c1c[nH]c2ncc(-c3cccs3)cc12`, the negative logarithm of the IC50 (pIC50) was ≥ 5.00.

Take `CS(=O)(=O)Nc1ccc(F)c(C(=O)c2c[nH]c3ncc(-c4cccnc4)cc23)c1`: the pIC50 was ≥ 5.00.

For the compound `Oc1cccc(Cc2c[nH]c3ncc(-c4ccsc4)cc23)c1`, the pIC50 was ≥ 5.00.

As to `O=C(c1c(F)ccc(NS(=O)(=O)c2ccccc2)c1F)c1c[nH]c2ncc(-c3cccnc3)cc12`, the pIC50 was ≥ 5.00.

Turning to `O=C(c1cc(O)ccc1F)c1c[nH]c2ncc(-c3cccnc3)cc12`, the pIC50 is ≥ 5.00.

For the compound `CS(=O)(=O)Nc1cccc(-c2cnc3[nH]cc(C(=O)c4c(Cl)ccc(NS(C)(=O)=O)c4F)c3c2)c1`, the pIC50 is ≥ 5.00.

For the compound `O=S(=O)(NCc1c[nH]c2ncccc12)c1ccc(N2CCOCC2)nc1`, the pIC50 was ≥ 5.00.

For the compound `O=C(c1ccc(O)cc1Cl)c1c[nH]c2ncc(-c3cccs3)cc12`, the pIC50 was ≥ 5.00.

Consider `CS(=O)(=O)Nc1cccc(-c2cnc3[nH]cc(C(=O)c4cc(NS(C)(=O)=O)ccc4F)c3c2)c1`, for which the pIC50 was ≥ 5.00.

As for `CC(=O)Nc1cccc(-c2cnc3[nH]cc(C(=O)c4ccccc4F)c3c2)c1`, the pIC50 is ≥ 5.00.

As for `O=C(c1cc(O)ccc1F)c1c[nH]c2ncc(-c3ccsc3)cc12`, the pIC50 was ≥ 5.00.

In the case of `COc1cccc(C(=O)c2c[nH]c3ncc(-c4cccs4)cc23)c1`, the pIC50 was ≥ 5.00.

For the compound `O=C(c1cccc(O)c1F)c1c[nH]c2ncc(-c3ccccc3)cc12`, the pIC50 was ≥ 5.00.

In the case of `O=C(c1cccc(F)c1F)c1c[nH]c2nccc(-c3cc(F)cc(F)c3)c12`, the pIC50 is ≥ 5.00.

Turning to `Nc1cccc(-c2cnc3[nH]cc(C(=O)c4cccc(Cl)c4Cl)c3c2)c1`, the pIC50 is ≥ 5.00.

As for `O=C(c1c(F)ccc(NS(=O)(=O)c2ccccc2)c1F)c1c[nH]c2ncc(Br)cc12`, the pIC50 was ≥ 5.00.

Turning to `COc1cccc(C(=O)c2c[nH]c3ncc(-c4cccc(N)c4)cc23)c1`, the pIC50 was ≥ 5.00.

These data come from the Kinase Knowledgebase extract (Sharma et al. 2016).
